Patent US11426084B2, “Method, apparatus and computer program for noninvasively determining cause of blood pressure change” (THE ASAN FOUNDATION, priority 2017, dated 2022)

Test system: blood pressure, myocardial contractile force and vascular resistance
Experiment: Administration of a cardiovascular agonist/blocker; indexes on myocardial contractile force and vascular resistance and changes in S1a and S2a observed
Format: in vivo
Conditions: for change in S1a and S2a when the drug is administered (in words): summary of Tables 2 to 4
Procedure: As cases of administering a cardiovascular agonist, Table 2 illustrates an experimental example in which various indexes on myocardial contractile force and vascular resistance and changes in S1a and S2a were observed when ephedrine of 10 mg as alpha and beta agonist was administered, Table 3 illustrates an experimental example in which various indexes on myocardial contractile force and vascular resistance and changes in S1a and S2a were observed when esmolol of 25 mg as beta-blocker was administered, and Table 4 illustrates an experimental example in which various indexes on myocardial contractile force and vascular resistance and changes in S1a and S2a were observed when phenylephrine of 100 mcg as the alpha agonist was administered. In order to determine the cause of the change in blood pressure, the above-described agents causing the change in blood pressure were administered and the response after the administration was examined.

For `COC(=O)CCc1ccc(OCC(O)CNC(C)C)cc1` (centres unmarked) [esmolol], the S12_R (after administration of esmolol 25 mg, before administration 2.6 ± 0.91, P 0.001) was 1.4 ± 0.38, the “S′” value (after administration of esmolol 25 mg, before administration 13.7 ± 4.4, P 0.011) was 10.2 ± 2.1 and the S2a (after administration of esmolol 25 mg, before administration 19.6 ± 5.5, P 0.162) was 21.1 ± 5.4 au. The S1a (after administration of esmolol 25 mg, before administration 49.3 ± 20.3, P 0.001) was 27.5 ± 9.3 au, the SBP (after administration of esmolol 25 mg, before administration 136.1 ± 16.8, P <0.001) was 124.4 ± 13.2 mmHg and the RRI (after administration of esmolol 25 mg, before administration 598 ± 96, P <0.001) was 700 ± 95 ms. For the same compound, the SVR (after administration of esmolol 25 mg, before administration 776.4 ± 256.1, P 0.062) was 750.8 ± 251.0 dyne · sec/cm^5, the dp/dt (after administration of esmolol 25 mg, before administration 1051.5 ± 233.4, P <0.001) was 804.3 ± 151.1 mmHg/s and the “change in S1a and S2a when the drug is administered (in words)” value (from here on “change in S1a and S2a”) was “only S1a is significantly decreased”.
In the case of `CN[C@@H](C)[C@H](O)c1ccccc1` [ephedrine], the S12_R (after administration of ephedrine 10 mg, before administration 1.79 ± 0.83, P 0.209) is reported as 2.06 ± 0.84, the “S′” value (after administration of ephedrine 10 mg, before administration 9.7 ± 2.1, P 0.014) is reported as 11.3 ± 2.7 and the S2a (after administration of ephedrine 10 mg, before administration 17.7 ± 8.1, P 0.004) is reported as 22.6 ± 9.2 au. It also gave an S1a (after administration of ephedrine 10 mg, before administration 27.6 ± 12.6, P 0.012) of 43.7 ± 24.9 au, an SBP (after administration of ephedrine 10 mg, before administration 109.6 ± 13.2, P <0.001) of 139.3 ± 14.0 mmHg and an RRI (after administration of ephedrine 10 mg, before administration 652 ± 70, P 0.029) of 625 ± 90 ms. For the same compound, the SVR (after administration of ephedrine 10 mg, before administration 719.4 ± 199.2, P 0.011) was 892.6 ± 250.2 dyne · sec/cm^5, the dp/dt (after administration of ephedrine 10 mg, before administration 725.2 ± 73.8, P 0.001) was 1065.5 ± 217.6 mmHg/s and the “change in S1a and S2a” value was “S1a and S2a increase together”.
In the case of `CNC[C@H](O)c1cccc(O)c1` [phenylephrine], the S12_R (after administration of phenylephrine 100 mcg, before administration 2.86 ± 1.73, P 0.531) is reported as 4.18 ± 6.7, the S2a (after administration of phenylephrine 100 mcg, before administration 14.29 ± 7.53, P 0.016) is reported as 18.89 ± 8.14 au and the S1a (after administration of phenylephrine 100 mcg, before administration 33.6 ± 20.8, P 0.428) is reported as 31.4 ± 15.5 au. For the same compound, the SBP (after administration of phenylephrine 100 mcg, before administration 93.7 ± 13.2, P 0.014) was 111.5 ± 13.8 mmHg, the SVR (after administration of phenylephrine 100 mcg, before administration 452.7 ± 110.0, P 0.007) was 524.0 ± 132.2 dyne · sec/cm^5 and the RRI (after administration of phenylephrine 100 mcg, before administration 575 ± 141, P 0.384) was 528 ± 197 ms. The dp/dt (after administration of phenylephrine 100 mcg, before administration 585.1 ± 106.1, P <0.001) was 744.8 ± 95.3 mmHg/s and the “change in S1a and S2a” value was “any significant change does not occur in S1a unlike S2a”.
